Results published in US20240216357A1 (SICHUAN HUIYU PHARMACEUTICAL CO., LTD., priority 2021, published 2024).
Counter-ions that a name gives are not always drawn. Like-named read-outs stand apart in the source and are kept apart here.

Key:
NCI-H1417 cells = assay: In vitro cell proliferation detection (CellTiter-Glo, 7 days); format: cell-based; details: read-out: NCI-H1417 proliferation inhibition IC50
LSD1 = LSD1 (Homo sapiens (Human), UniProt O60341); assay: LSD1 enzyme activity detection (HTRF); format: biochemical; details: read-out: Inhibition of enzymatic activity of LSD1 IC50
[1] = target: voltage-gated potassium ion channel hERG (Homo sapiens (Human), UniProt Q12809); assay: hERG inhibition test (manual patch-clamp); details: read-out: hERG IC50; manual patch-clamp
voltage-gated potassium ion channel hERG, sequence (Q12809 whole entry): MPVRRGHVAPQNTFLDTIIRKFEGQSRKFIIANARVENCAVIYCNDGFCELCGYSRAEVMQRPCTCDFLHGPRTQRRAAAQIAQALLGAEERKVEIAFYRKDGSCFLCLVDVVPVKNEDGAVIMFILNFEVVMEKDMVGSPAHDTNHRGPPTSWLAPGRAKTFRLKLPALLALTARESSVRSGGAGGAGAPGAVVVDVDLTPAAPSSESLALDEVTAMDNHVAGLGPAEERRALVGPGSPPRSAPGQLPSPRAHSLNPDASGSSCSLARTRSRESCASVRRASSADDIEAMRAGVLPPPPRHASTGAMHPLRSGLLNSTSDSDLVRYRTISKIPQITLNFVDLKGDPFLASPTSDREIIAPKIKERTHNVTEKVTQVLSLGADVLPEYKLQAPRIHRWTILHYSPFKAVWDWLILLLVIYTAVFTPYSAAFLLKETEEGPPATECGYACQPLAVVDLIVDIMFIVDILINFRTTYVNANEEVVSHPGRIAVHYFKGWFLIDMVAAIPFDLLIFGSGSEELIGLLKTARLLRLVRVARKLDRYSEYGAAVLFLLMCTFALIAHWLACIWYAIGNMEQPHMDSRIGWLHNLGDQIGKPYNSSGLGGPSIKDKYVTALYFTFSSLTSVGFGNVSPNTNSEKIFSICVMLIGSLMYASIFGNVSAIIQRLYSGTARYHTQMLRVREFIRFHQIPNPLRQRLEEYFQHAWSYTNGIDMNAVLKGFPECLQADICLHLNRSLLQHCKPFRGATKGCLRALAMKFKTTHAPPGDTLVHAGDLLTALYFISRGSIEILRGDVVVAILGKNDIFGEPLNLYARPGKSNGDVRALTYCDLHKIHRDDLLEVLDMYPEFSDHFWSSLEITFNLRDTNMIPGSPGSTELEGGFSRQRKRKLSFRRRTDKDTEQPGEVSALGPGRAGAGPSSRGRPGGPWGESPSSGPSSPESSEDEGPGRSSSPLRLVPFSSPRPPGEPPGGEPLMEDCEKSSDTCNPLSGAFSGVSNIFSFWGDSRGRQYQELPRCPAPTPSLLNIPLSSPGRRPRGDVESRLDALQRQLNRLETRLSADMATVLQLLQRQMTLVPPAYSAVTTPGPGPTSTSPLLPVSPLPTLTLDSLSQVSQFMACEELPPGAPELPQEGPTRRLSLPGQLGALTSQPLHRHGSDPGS

[2] = Homo sapiens, 168 h, NCI-H1417 cells, 7 days, CellTiter-Glo

Molecule	IC50 (NCI-H1417 cells; [2])	IC50 (LSD1; HTRF, H3K4me1 substrate)	IC50 [1]	IC50 (NCI-H1417 cells)	IC50 (LSD1)
COc1cc(N2CCC(N)CC2)nc(-c2ccc(C#N)c(F)c2)c1-c1ccc(C)c(O)c1 [Example 95, 4-(6-(4-aminopiperidin-1-yl)-3-(3-hydroxy-4-methylphenyl)-4-methoxypyridin-2-yl)-2-fluorobenzonitrile hydrochloride]	0.000467 µM	0.00016 ± 0.00011 µM	6.92 µM	–	–
COc1cc(N2CCC(N)CC2)nc(-c2ccc(C#N)c(F)c2)c1-c1ccc(Cl)c(O)c1 [Example 98, 4-(6-(4-aminopiperidin-1-yl)-3-(4-chloro-3-hydroxyphenyl)-4-methoxypyridin-2-yl)-2-fluorobenzonitrile hydrochloride]	0.000604 µM	–	5.85 µM	–	–
Cc1ccc(-c2c(-c3ccc(C#N)c(F)c3)nc(N3CC4CC3CC4N)n3ccnc23)cc1O (centres unmarked) [Example 160, 4-(5-(5-amino-2-azadicyclo[2. 2.1]heptan-2-yl)-8-(3-hydroxy-4-methylphenyl)imidazolo[1,2-c]pyrimidin-7-yl)-2-fluorobenzonitrile hydrochloride]	0.00029 µM	0.0012 ± 0.0002 µM	–	–	–
N#CCn1ncc2cc(F)c(-c3sc(C(=O)N4C5CCC4CC(N)C5)nc3-c3ccc(C#N)c(F)c3)cc21 (centres unmarked) [Example 221, 4-(2-(3-amino-8-azabicyclo[3.2.1]octan-8-carbonyl)-5-(1-(cyanomethyl)-5-fluoro-1H-indazol-6-yl)thiazol-4-yl)-2-fluorobenzonitrile hydrochloride]	0.0298 µM	0.01 ± 0.0032 µM	–	–	–
COc1ccc(-c2c(-c3ccc(C#N)c(F)c3F)nc(N3C4CCC3CC(N)C4)n3ccnc23)cc1F (centres unmarked) [Example 183, 4-(5-(3-amino-8-azabicyclo[3.2.1]octane-8-yl)-8-(3-fluoro-4-methoxyphenyl)imidazolo[1,2-c]pyrimidin-7-yl)-2,3-difluorobe nzonitrile hydrochloride]	0.00628 µM	0.0036 ± 0.0006 µM	–	–	–
Cn1cc2cc(-c3cnc(N4CCC(N)CC4)c(C#N)c3-c3ccc(C#N)c(F)c3)ccc2n1 [Example 84, 2-(4-aminopiperidin-1-yl)-4-(4-cyano-3-fluorophenyl)-5-(2-methyl-2H-indazol-5-yl) nicotinonitrile hydrochloride]	0.00491 µM	0.00218 µM	–	–	–
CS(=O)(=O)N1CCN(C(=O)c2cc(CN[C@@H]3C[C@H]3c3ccc(F)cc3)nc(-c3ccc(F)c(O)c3)n2)CC1 [Example 238, (2-(4-fluoro-3-hydroxy phenyl)-6-(((1R,2S)-2-(4-fluorophenyl)cyclo-propyl)amino)methyl) pyrimidin-4-yl)(4-(methyl-sulfonyl)piperazin-1-yl) methanone hydrochloride]	0.00531 µM	0.098 ± 0.001 µM	–	–	–
N#Cc1ccc(-c2nc(N3CCC(N)CC3)cc(O)c2-c2ccc(OC(F)(F)F)c(F)c2)cc1F [Example 18, 4-(6-(4-aminopiperidin-1-y)-3-(3-fluoro-4-(trifluoromethoxy)phenyl)-4-hydroxypyridin-2-yl)-2-fluorobenzonitrile]	0.0872 µM	0.0783 µM	–	–	–
COc1ccc(-c2c(-c3ccc(C#N)c(F)c3)nc(N3CCC(N)CC3)c3ncoc23)cc1O [Example 278, 4-(4-(4-aminopiperidin-1-yl)-7-(3-hydroxy-4-methoxyphenyl)oxazolo[4,5-c]pyridin-6-yl)-2-fluo robenzonitrile]	0.000648 µM	0.0003 ± 0.0001 µM	–	–	–
CN(CCCN)c1nc(-c2ccc(C#N)c(F)c2)c(-c2ccc(OC(F)(F)F)c(O)c2)c2nccn12 [Example 153, 4-(5-((3-aminopropyl) (methyl)amino)-8-(3-hydroxy-4-(trifluoromethoxy)phenyl)imidazolo [1,2-c]pyrimidin-7-yl)-2-fluorobenzonitrile]	0.0316 µM	0.0052 ± 0.0005 µM	–	–	–
COc1ccc(-c2c(OCC3CC3)cc(N3CCC(N)CC3)nc2-c2ccc(C#N)c(F)c2)cc1O [Example 108, 4-(6-(4-aminopiperidin-1-yl)-4-(cyclopropylmethoxy)-3-(3-hydroxy-4-methoxyphenyl)pyridin-2-yl)-2-fluorobenzonitrile hydrochloride]	0.00402 µM	0.0015 ± 0.0007 µM	–	–	–
COc1ccc(-c2c(O)cc(N3CCC(N(C)C)CC3)nc2-c2ccc(C#N)c(F)c2)cc1F [Example 56, 4-(6-(4-(dimethylamino)piperidin-1-yl)-3-(3-fluoro-4-methoxyphenyl)-4-hydroxypyridin-2-yl)-2-fluorobenzonitrile]	0.00488 µM	0.0029 ± 0.0012 µM	–	–	–
N#Cc1ccc(-c2cc(C(=O)N3C4CCC3CC(N)C4)sc2-c2ccc3oc(=O)[nH]c3c2)cc1F (centres unmarked) [Example 214, 4-(5-(3-amino-8-azabicyclo [3.2.1]octan-8-carbonyl)-2-(2-carbonyl-2,3-dihydrobenzo[d]oxazol-5-yl)thiophen-3-yl)-2-fluoro benzonitrile hydrochloride]	0.493 µM	0.00047 ± 0.00013 µM	–	–	–
N#Cc1ccc(-c2cc(C(=O)N3C4CCC3CC(N)C4)sc2-c2ccncn2)cc1F (centres unmarked) [Example 202, 4-(5-(3-amino-8-azabicyclo [3.2.1]octane-8-carbonyl)-2-(pyrimidin-4-yl)thiophen-3-yl)-2-fluoro-benzonitrile hydrochloride]	> 1 µM	0.0771 µM	–	–	–
COc1ccc(-c2c(O)cc(N3CCC(N)CC3)nc2-c2ccc(C#N)c(F)c2)cn1 [Example 22, 4-(6-(4-aminopiperidin-1-yl)-4-hydroxy-6′-methoxy-[3,3′-bipyridine]-2-yl)-2-fluorobenzonitrile]	0.0349 µM	0.00903 µM	–	–	–
Cc1ccc(-c2c(-c3ccc(C#N)cc3)cc3c(N4CCC(N)C4)nccn23)cc1 (centres unmarked) [Example 192, 4-(1-(3-aminopyrrolidin-1-yl)-6-(p-tolyl)pyrrolo [1,2-a]pyrazine-7-yl) benzonitrile hydrochloride]	0.081 µM	0.0106 µM	–	–	–
COc1ccc(-c2sc(C(=O)N3C4CCC3CC(N)C4)cc2-c2ccc(C#N)c(F)c2)cc1O (centres unmarked) [Example 218, 4-(5-(3-amino-8-azabicyclo [3.2.1]octan-8-carbonyl)-2-(3-hydroxy-4-methoxy-phenyl)thiophen-3-yl)-2-fluorobenzonitrile]	0.00088 µM	0.00015 ± 3e-05 µM	–	–	–
COc1ccc(-c2c(OC)cc(N3CCC(N)CC3)nc2-c2ccc(C#N)c(F)c2)cc1C#N [Example 93, 4-(6-(4-aminopiperidin-1-yl)-3-(3-cyano-4-methoxyphenyl)-4-methoxypyridin-2-yl)-2-fluorobenzonitrile]	0.0307 µM	0.153 µM	–	–	–
COc1cc(N2CCC(N)CC2)nc(-c2ccc(C#N)c(F)c2)c1-c1ccc(C#N)c(F)c1 [Example 94, 4,4′-(6-(4-aminopiperidin-1-yl)-4-methoxypyridin-2,3-diyl)bis(2-fluorobenzonitrile)]	0.104 µM	0.0249 µM	–	–	–
O=C(c1cc(CN[C@@H]2C[C@H]2c2ccc(F)cc2)nc(-c2ccc(-n3ccnn3)cc2)n1)N1CCC(F)(F)CC1 [Example 248, (2-(4-(1H-1,2,3-triazol-1-yl)phenyl)-6-((((1R,2S)-2-(4-fluorophenyl)cyclo-propyl)amino)methyl)pyrimidin-4-yl)(4,4-difluoropiperidin-1-yl) methanone]	0.00298 µM	0.14 µM	–	–	–
N#Cc1ccc(-c2cc(C(=O)N3C4CCC3CC(N)C4)sc2-c2cc3[nH]nnc3cc2F)cc1F (centres unmarked) [Example 216, 4-(5-(3-amino-8-azabicyclo [3.2.1]octan-8-carbonyl)-2-(5-fluoro-1H-benzo [d][1,2,3]triazol-6-yl)thio-phen-3-yl)-2-fluorobenzo-nitrile hydrochloride]	0.0209 µM	0.00814 ± 0.00184 µM	–	–	–
COc1ccc(-c2c(C(N)=O)nc(N3CCC(N)CC3)nc2-c2ccc(C#N)c(F)c2)cc1F [Example 110, 2-(4-aminopiperidin-1-yl)-6-(4-cyano-3-fluorophenyl)-5-(3-fluoro-4-methoxyphenyl)pyrimidine-4-carboxamide hydrochloride]	0.0426 µM	0.0032 ± 0.00037 µM	–	–	–
Cc1noc2cc(-c3nc(CN[C@@H]4C[C@H]4c4ccc(F)cc4)cc(C(=O)N4CCN(S(C)(=O)=O)CC4)n3)c(F)cc12 [Example 235]	0.0983 µM	0.285 µM	–	–	–
CC(C)(O)Cn1ncc2cc(F)c(-c3c(-c4ccc(C#N)c(F)c4)nc(N4CCC(N)CC4)n4ccnc34)cc21 [Example 127, 4-(5-(4-aminopiperidin-1-yl)-8-(5-fluoro-1-(2-hydroxy-2-methylpropyl)-1H-indazo-6-yl)imidazolo[1,2-c]pyrimidin-7-yl)-2-fluorobenzonitrile hydrochloride]	0.135 µM	0.0344 µM	–	–	–
5′-(4-aminopiperidin-1l-yl)-3-fluoro-3′,3′-dihydroxy-4′-methyl-[1,1′:2′,1′-triphenyl]-4-carbonitrile [Example 266]	–	–	–	0.00048 µM	0.0007 ± 4e-06 µM
N#Cc1ccc(-c2cc(C(=O)N3C4CCC3CC(N)C4)sc2-c2ccccn2)cc1F (centres unmarked) [Example 201, 4-(5-(3-amino-8-azabicyclo [3.2.1]octane-8-carbonyl)-2-(pyridin-2-yl)thiophen-3-yl)-2-fluorobenzonitrile Hydrochloride]	0.384 µM	0.0268 µM	–	–	–
Cc1sc(C(=O)N2C3CCC2CC(N)C3)cc1-c1ccc(C#N)c(F)c1 (centres unmarked) [Example 199, 4-(5-(3-amino-8-azadicyclo [3.2.1]octane-8-carbonyl)-2-methylthiophene-3-yl)-2-fluorobenzonitrile hydrochloride]	> 1 µM	0.072 µM	–	–	–
COc1ccc(-c2nc(CN[C@@H]3C[C@H]3c3ccc(F)cc3)cc(C(=O)N3CCC(F)(F)CC3)n2)cc1O [Example 247]	0.00651 µM	0.0658 µM	–	–	–
N#Cc1ccc(-c2cc(C(=O)N3C4CCC3CC(N)C4)sc2-c2ccc3cn[nH]c3c2)cc1F (centres unmarked) [Example 203, 4-(5-(3-amino-8-azabicyclo [3.2.1]octane-8-carbonyl)-2-(1H-indazol-6-yl)thiophen-3-yl)-2-fluoro-benzonitrile]	0.0376 µM	0.00039 µM	–	–	–
